Measurements from US12686877B2, “Method for producing olivetolic acid in an amoebozoa host species” (LEIBNIZ-INSTITUT FÜR NATURSTOFF-FORSCHUNG UND …, priority 2020, dated 2026).

Tested on: D. discoideum pChR2 strain
Experiment: Growth and metabolic activity monitoring (respiration activity, oxygen transfer rate)
Assay type: cell-based, Dictyostelium discoideum
Settings: pChR2 strain supplemented with 1 mM hexanoic acid
Experimental: Growth and metabolic activity monitoring. For determining the respiration activity, the D. discoideum pChR2, pChR5 and pChR7 strains were grown at an initial density of 1×10^6 cells/mL of HL5 medium supplemented with 1% [w/v] glucose and 20 μg/mL G418 in the presence or absence of 20 μg/mL doxycycline and 1 mM hexanoic acid as indicated. The respiration activity was measured by using the Kuhner TOM (transfer-rate online measurement) system equipped with oxygen partial pressure sensors and infrared sensors to calculate the oxygen transfer rate (OTR) and the carbon dioxide transfer rate (CTR). The cultures were grown in 250 mL TOM flasks for 144 h at 140 rpm and 22° C. without interruption to allow a constant OTR assessment. A filling volume of 52 mL was calculated in order to allow a maximum OTR of 8.5 mmol/L/h43, similar to culture conditions of previous experiments using 25 mL per 100 mL Erlenmeyer shake flasks.

CCCCCC(=O)O [hexanoic acid]
effect on growth: initial growth inhibitory effect | effect on maximum OTR: did not change the maximum OTR | time at which the oxygen transfer rate (OTR) peaked (77 h without supplementation): 92 h
